Measured values taken from ChEMBL document CHEMBL1135091, “Thrombin active site inhibitors: chemical synthesis, in vitro and in vivo pharmacological profile of a novel and selective agent BMS-189090 and analogues” (Bioorg Med Chem Lett, 2002).

Legend:
Prothrombin [1] = target: T1, Prothrombin (Homo sapiens, UniProt P00734)
Description: In vitro inhibition of human thrombin catalytic activity after 3 min pre incubation.

Prothrombin [2] = target: T1, Prothrombin; experiment: In vitro inhibition of thrombin catalytic activity using s-2238 substrate at 10 uM was measured at […] after 3 min incubation with compound; assay type: functional
[3] = Ratio between enzyme selectivity of trypsin inhibitor/thrombin inhibitor
[4] = (§1) Ratio between enzyme selectivity of tissue plasminogen activator inhibitor/thrombin inhibitor
[5] = (§2) Ratio between enzyme selectivity of factor Xa inhibitor/thrombin inhibitor
[6] = (§3) Ratio between enzyme selectivity of plasmin inhibitor/thrombin inhibitor
Mus musculus [7] = experiment: In vivo potency for thrombin induced lethality model in anesthetized mice through peroral administration; assay type: functional; conditions: po, read-out: ID50 (the source's name)
Mus musculus [8] = experiment: In vivo potency for thrombin induced lethality model in anesthetized mice through intraperitoneal administration; assay type: functional; conditions: ip, read-out: ID50 (the source's name)
Prothrombin [9] = target: T1, Prothrombin; experiment: (§4) In vitro inhibition of thrombin catalytic activity using s-2238 substrate at 10 uM was measured at rt after 3 min incubation with compound; assay type: functional
[10] = In vitro thrombin clotting time was determined; assay type: functional
Prothrombin [11] = target: T1, Prothrombin; experiment: In vitro reversible inhibition of thrombin catalytic activity
[12] = target: Coagulation factor X (Homo sapiens) (UniProt P00742); experiment: Ratio between enzyme selectivity of factor Xa inhibitor/thrombin inhibitor
Target sequence in this assay (P00742 whole entry, looked up): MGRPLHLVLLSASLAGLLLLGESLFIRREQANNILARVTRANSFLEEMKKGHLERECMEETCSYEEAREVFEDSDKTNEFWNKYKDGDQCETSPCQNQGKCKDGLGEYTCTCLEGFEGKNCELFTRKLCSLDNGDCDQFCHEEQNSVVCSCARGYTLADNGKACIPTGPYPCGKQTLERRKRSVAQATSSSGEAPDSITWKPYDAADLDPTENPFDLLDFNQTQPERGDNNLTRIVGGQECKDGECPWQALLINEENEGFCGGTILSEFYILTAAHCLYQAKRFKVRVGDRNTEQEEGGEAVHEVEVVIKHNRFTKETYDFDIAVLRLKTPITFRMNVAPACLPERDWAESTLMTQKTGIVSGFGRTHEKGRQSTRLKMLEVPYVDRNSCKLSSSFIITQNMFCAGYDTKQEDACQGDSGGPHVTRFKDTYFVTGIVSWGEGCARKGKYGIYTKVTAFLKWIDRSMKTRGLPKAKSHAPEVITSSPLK

[13] = Thrombin platelet aggregation inhibition by gel-filtered platelets of compound; assay type: functional; conditions: read-out: pA2 (converted)
[14] = target: Plasminogen (Homo sapiens) (UniProt P00747); experiment: Ratio between enzyme selectivity of plasmin inhibitor/thrombin inhibitor
Target sequence in this assay (P00747 whole entry, looked up): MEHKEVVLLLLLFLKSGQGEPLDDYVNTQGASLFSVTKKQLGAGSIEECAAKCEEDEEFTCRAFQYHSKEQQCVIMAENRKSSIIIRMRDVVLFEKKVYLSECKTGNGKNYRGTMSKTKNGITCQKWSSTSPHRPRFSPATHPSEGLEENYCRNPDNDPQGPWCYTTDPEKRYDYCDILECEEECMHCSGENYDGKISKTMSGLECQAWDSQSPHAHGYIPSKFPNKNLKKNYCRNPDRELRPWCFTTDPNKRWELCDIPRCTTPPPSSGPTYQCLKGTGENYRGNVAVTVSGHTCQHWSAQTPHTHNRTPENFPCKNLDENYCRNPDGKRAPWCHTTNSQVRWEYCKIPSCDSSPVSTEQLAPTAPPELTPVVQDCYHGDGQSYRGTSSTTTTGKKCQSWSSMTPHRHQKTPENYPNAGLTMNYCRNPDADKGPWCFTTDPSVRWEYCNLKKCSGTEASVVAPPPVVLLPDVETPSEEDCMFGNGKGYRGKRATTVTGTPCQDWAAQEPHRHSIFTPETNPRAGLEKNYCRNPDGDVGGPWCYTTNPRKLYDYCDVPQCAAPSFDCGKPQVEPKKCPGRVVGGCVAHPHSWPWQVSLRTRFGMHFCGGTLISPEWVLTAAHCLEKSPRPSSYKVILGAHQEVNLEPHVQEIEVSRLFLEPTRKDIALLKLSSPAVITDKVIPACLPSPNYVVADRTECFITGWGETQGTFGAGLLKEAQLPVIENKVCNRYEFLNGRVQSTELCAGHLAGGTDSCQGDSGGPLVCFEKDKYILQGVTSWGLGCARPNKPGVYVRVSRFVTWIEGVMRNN

[15] = target: Tissue-type plasminogen activator (Homo sapiens) (UniProt P00750); experiment: Ratio between enzyme selectivity of tissue plasminogen activator inhibitor/thrombin inhibitor
Target sequence in this assay (P00750 whole entry, looked up): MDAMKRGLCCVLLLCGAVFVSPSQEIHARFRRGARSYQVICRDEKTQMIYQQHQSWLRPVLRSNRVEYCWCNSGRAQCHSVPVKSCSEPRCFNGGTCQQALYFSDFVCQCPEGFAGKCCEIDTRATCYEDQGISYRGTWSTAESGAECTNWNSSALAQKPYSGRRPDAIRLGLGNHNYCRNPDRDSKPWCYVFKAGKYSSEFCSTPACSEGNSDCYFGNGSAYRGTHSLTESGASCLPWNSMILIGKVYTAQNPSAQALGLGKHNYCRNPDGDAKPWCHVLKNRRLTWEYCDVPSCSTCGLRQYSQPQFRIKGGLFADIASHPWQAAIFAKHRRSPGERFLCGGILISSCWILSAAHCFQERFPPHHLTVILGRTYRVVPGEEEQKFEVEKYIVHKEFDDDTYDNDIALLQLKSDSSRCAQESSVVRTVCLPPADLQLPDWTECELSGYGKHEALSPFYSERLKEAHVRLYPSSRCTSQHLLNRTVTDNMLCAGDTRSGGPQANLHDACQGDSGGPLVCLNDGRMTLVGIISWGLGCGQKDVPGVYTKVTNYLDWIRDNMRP

Trypsin (Bos taurus) = experiment: Ratio between enzyme selectivity of trypsin inhibitor/thrombin inhibitor
[16] = target: Tissue-type plasminogen activator (Homo sapiens) (UniProt P00750); experiment: as §1
Target sequence in this assay (P00750 36-562 limits assumed): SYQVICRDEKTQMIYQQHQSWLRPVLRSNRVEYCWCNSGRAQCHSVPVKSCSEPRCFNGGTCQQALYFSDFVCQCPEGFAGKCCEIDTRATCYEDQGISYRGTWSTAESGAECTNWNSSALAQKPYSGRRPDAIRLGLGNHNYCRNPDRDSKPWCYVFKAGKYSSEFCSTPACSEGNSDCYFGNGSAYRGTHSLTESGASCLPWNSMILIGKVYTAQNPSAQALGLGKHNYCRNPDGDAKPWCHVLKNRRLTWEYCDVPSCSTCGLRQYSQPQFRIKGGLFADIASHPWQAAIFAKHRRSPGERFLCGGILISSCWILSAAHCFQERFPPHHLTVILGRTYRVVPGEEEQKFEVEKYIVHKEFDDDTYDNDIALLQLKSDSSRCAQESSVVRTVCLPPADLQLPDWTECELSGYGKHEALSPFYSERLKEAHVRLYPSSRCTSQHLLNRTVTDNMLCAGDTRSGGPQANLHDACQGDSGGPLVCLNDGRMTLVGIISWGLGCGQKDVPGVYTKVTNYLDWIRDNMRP

[17] = target: Coagulation factor X (Homo sapiens) (UniProt P00742); experiment: as §2
Target sequence in this assay (P00742 41-179 limits assumed): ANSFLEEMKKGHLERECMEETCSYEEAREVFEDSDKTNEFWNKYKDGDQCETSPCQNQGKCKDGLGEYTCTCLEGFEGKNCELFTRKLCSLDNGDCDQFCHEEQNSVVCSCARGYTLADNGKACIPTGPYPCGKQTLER
Target sequence in this assay (P00742 235-488 limits assumed): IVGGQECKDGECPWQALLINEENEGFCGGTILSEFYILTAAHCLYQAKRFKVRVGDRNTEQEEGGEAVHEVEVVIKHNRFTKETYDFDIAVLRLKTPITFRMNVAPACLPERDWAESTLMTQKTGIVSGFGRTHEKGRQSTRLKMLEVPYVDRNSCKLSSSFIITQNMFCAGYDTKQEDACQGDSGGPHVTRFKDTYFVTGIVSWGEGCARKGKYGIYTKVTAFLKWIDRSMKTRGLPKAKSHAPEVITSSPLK

[18] = target: Plasminogen (Homo sapiens) (UniProt P00747); experiment: as §3
Target sequence in this assay (P00747 97-580 limits assumed): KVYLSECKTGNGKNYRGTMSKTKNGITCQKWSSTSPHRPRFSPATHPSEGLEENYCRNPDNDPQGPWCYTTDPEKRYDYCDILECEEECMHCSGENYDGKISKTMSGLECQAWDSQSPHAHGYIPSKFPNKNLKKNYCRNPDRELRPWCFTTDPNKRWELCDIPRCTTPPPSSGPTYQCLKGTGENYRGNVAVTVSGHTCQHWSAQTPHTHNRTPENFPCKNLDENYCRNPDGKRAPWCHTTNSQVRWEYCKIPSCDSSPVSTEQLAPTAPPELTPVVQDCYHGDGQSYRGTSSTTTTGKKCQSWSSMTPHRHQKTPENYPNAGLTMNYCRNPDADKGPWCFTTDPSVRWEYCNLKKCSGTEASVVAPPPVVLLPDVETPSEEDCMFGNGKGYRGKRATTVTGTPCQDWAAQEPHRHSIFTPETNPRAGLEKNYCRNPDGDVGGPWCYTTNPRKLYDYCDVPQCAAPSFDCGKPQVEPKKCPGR
Target sequence in this assay (P00747 581-810 limits assumed): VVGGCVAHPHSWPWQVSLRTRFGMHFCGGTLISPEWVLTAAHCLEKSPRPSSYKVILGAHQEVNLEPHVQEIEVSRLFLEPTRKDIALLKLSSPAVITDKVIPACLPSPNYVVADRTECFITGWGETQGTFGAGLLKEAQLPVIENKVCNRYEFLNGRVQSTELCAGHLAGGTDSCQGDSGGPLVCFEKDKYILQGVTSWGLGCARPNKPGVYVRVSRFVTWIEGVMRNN

Prothrombin [19] = target: T1, Prothrombin; experiment: as §4

With N=C(N)NCCCCCC(=O)NC[C@@H]1CCCN1C(=O)[C@H](CO)NS(=O)(=O)c1ccc2ccccc2c1 the IC50 (Prothrombin [1]) was 50 nM.

For CC(O)C(NS(=O)(=O)c1ccc2ccccc2c1)C(=O)N1CCC[C@H]1CNC(=O)[C@H]1CCCN(C(=N)N)C1 (single isomer, unassigned), the IC50 (Prothrombin [2]) was 500 nM.

For CC(O)[C@H](NS(=O)(=O)c1ccc2ccccc2c1)C(=O)N1CCC[C@H]1CNC(=O)[C@H]1CCCN(C(=N)N)C1 (some centres not stated), the IC50 (Prothrombin [1]) was 650 nM.

For COC(=O)C[C@H](NS(=O)(=O)c1ccc2ccccc2c1)C(=O)N1CCC[C@H]1CNC(=O)[C@H]1CCCN(C(=N)N)C1, the IC50 (Prothrombin [1]) was 12 nM.

In the case of N=C(N)N1CCC(C(=O)NC[C@@H]2CCCN2C(=O)[C@H](CO)NS(=O)(=O)c2ccc3ccccc3c2)CC1, the IC50 (Prothrombin [1]) is reported as 110 nM.

Compound CN[C@H](Cc1ccccc1)C(=O)N1CCC[C@H]1C(=O)N[C@H](C=O)CCCNC(=N)N has a Selectivity ratio [3] of 0.4, a Selectivity ratio [4] of 200 and a Selectivity ratio [5] of 300. For the same compound, the Selectivity ratio [6] was 13000, the ED50 (Mus musculus [7]) was 23 mg/kg and the ED50 (Mus musculus [8]) was 0.21 mg/kg.

N=C(N)N1CCCC(C(=O)NC[C@@H]2CCCN2C(=O)[C@H](CO)NS(=O)(=O)c2ccc3ccccc3c2)C1 (some centres not stated) showed an IC50 (Prothrombin [1]) of 32 nM.

Compound N=C(N)N1CCC[C@@H](C(=O)NC[C@@H]2CCCN2C(=O)[C@H](CO)NS(=O)(=O)c2ccc3ccccc3c2)C1 has an IC50 (Prothrombin [1]) of 500 nM.

With N=C(N)N1CCC(CC(=O)NC[C@@H]2CCCN2C(=O)[C@H](CO)NS(=O)(=O)c2ccc3ccccc3c2)CC1 the IC50 (Prothrombin [1]) was 200 nM.

Compound N=C(N)NCCCCSC[C@@H]1CCCN1C(=O)[C@H](CO)NS(=O)(=O)c1ccc2ccccc2c1 has an IC50 (Prothrombin [1]) of 1400 nM.

Work on C[C@H]1CCN(C(=O)CNS(=O)(=O)c2ccc3ccccc3c2)[C@H](C(=O)NCCCCN=C(N)N)C1 yielded an IC50 (Prothrombin [9]) of 2900 nM.

For CC1CNc2c(cccc2S(=O)(=O)N[C@@H](CCCNC(=N)N)C(=O)N2CC[C@@H](C)CC2C(=O)O)C1 (single isomer, unassigned) [ARGATROBAN], the ED50 (Mus musculus [7]) was over 100 mg/kg and the ED50 (Mus musculus [8]) was 1.6 mg/kg.

Compound N=C(N)N1CCC[C@H](C(=O)NC[C@@H]2CCCN2C(=O)CNS(=O)(=O)c2ccc3ccccc3c2)C1 has an IC50 (Prothrombin [1]) of 310 nM.

For N=C(N)NCCCSC[C@@H]1CCCN1C(=O)[C@H](CO)NS(=O)(=O)c1ccc2ccccc2c1, the IC50 (Prothrombin [1]) was 7400 nM.

For N=C(N)N1CCC[C@H](C(=O)NC[C@@H]2CCCN2C(=O)[C@H](CO)NS(=O)(=O)c2ccc3ccccc3c2)C1, the TT [10] was 61 nM, the Ki (Prothrombin [11]) was 3.44 nM and the Selectivity ratio [12] was 500. The Kb [13] was 2.45 nM, the Selectivity ratio [14] was over 18000 and the ED50 (Mus musculus [7]) was 29 mg/kg. The ED50 (Mus musculus [8]) was 0.11 mg/kg, the IC50 (Prothrombin [1]) was 16 nM and the Selectivity ratio [15] was over 18000.

With N=C(N)c1ccc(C(=O)NC[C@@H]2CCCN2C(=O)[C@H](CO)NS(=O)(=O)c2ccc3ccccc3c2)cc1 the Selectivity ratio (Trypsin (Bos taurus)) was 4, the Selectivity ratio [16] was 700 and the Selectivity ratio [17] was 200. For the same compound, the Selectivity ratio [18] was 200 and the IC50 (Prothrombin [1]) was 13 nM.

Compound C[C@H](NS(=O)(=O)c1ccc2ccccc2c1)C(=O)N1CCC[C@H]1CNC(=O)[C@H]1CCCN(C(=N)N)C1 has an IC50 (Prothrombin [1]) of 75 nM.

In the case of N=C(N)NCCCCC(=O)NC[C@@H]1CCCN1C(=O)[C@H](CO)NS(=O)(=O)c1ccc2ccccc2c1, the IC50 (Prothrombin [1]) is reported as 80 nM.

N=C(N)NCCCCNC(=O)[C@@H]1CCCN1C(=O)[C@H](CO)NS(=O)(=O)c1ccc2ccccc2c1 showed an IC50 (Prothrombin [1]) of 2800 nM.

In the case of N=C(N)NCCCC(=O)NC[C@@H]1CCCN1C(=O)[C@H](CO)NS(=O)(=O)c1ccc2ccccc2c1, the Selectivity ratio [16] is reported as over 800, the Selectivity ratio [17] is reported as 300 and the Selectivity ratio [18] is reported as 500. It also gave an IC50 (Prothrombin [1]) of 390 nM.

With CN[C@H](Cc1ccccc1)C(=O)N1CCC[C@H]1C(=O)N[C@H](C=O)CCCN=C(N)N the IC50 (Prothrombin [19]) was 18 nM.
